# Measured values from patent US20240092784A1, “CONDENSED HETEROCYCLIC COMPOUND” (NISSAN CHEMICAL CORPORATION, priority 2020, published 2024).
# Where a name gives a salt, the structure may show the parent alone.
# Target: human SPR (Homo sapiens (Human), UniProt P35270)
# Assay: Evaluation Example 2: Measurement of human SPR inhibitory activity (seven concentrations, sepiapterin absorbance at 420 nm)
# Type: biochemical
# Settings: Evaluation Example 2, seven concentrations 0.14 nM to 100 nM, 240 minutes at room temperature, read-out: IC50
# Method in brief: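 Reactions ran 240 min at room temperature in 100 mM Tris-HCl pH 7.5 with 0.01% BSA. They contained tag-cleaved, E. coli-expressed full-length human SPR (diluted to 150 ng/mL), seven compound concentrations from 0.14 to 100 nM, and sepiapterin/NADPH added as a 120 μM/160 μM solution. Inhibition was calculated from sepiapterin absorbance at 420 nm.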
# human SPR, sequence (P35270 whole entry): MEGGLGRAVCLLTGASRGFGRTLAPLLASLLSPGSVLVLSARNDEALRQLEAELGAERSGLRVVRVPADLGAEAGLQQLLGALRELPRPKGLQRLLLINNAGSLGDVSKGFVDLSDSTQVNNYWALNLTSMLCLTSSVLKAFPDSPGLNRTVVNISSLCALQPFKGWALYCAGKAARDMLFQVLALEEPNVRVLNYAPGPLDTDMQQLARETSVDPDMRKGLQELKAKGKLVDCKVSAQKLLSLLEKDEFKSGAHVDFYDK
row,SMILES,IC50 [nM]
1,"CC(C)Cn1c(=O)c(C(=O)NC2CC2)c(O)n2nc(NC(=O)OC(C)(C)C)c(/C=C/C(=O)N3CCC(F)(F)CC3)c12 [Synthesis Example 413, Tert-butyl (E)-(6-(cyclopropylcarbamoyl)-3-(3-(4,4-difluoropiperidin-1-yl)-3-oxoprop-1-en-1-yl)-7-hydroxy-4-isobutyl-5-oxo-4,5-dihydropyrazolo[1,5-a]pyrimidin-2-yl)carbamate]",1.32
2,"CC(C)Cn1c(=O)c(C(=O)NC2CC2)c(O)n2nc(N)c(/C=C/C(=O)N3CCC(F)(F)CC3)c12 [Synthesis Example 414, (E)-2-Amino-N-cyclopropyl-3-(3-(4,4-difluoropiperidin-1-yl)-3-oxoprop-1-en-1-yl)-7-hydroxy-4-isobutyl-5-oxo-4,5-dihydropyrazolo[1,5-a]pyrimidine-6-carboxamide hydrochloride]",0.7
3,"CC(C)Cn1c(=O)c(C(=O)NC2CC2)c(O)n2nc(NC(=O)OC(C)(C)C)c(/C=C/C(=O)N3CCOCC3)c12 [Synthesis Example 415, Tert-butyl (E)-(6-(cyclopropylcarbamoyl)-7-hydroxy-4-isobutyl-3-(3-morpholino-3-oxoprop-1-en-1-yl)-5-oxo-4,5-dihydropyrazolo[1,5-a]pyrimidin-2-yl)carbamate]",0.74
4,"CC(C)Cn1c(=O)c(C(=O)NC2CC2)c(O)n2nc(N)c(/C=C/C(=O)N3CCOCC3)c12 [Synthesis Example 416, (E)-2-Amino-N-cyclopropyl-7-hydroxy-4-isobutyl-3-(3-morpholino-3-oxoprop-1-en-1-yl)-5-oxo-4,5-dihydropyrazolo[1,5-a]pyrimidine-6-carboxamide]",0.59
5,"CC(C)Cn1c(=O)c(C(=O)NC2CC2)c(O)n2nc(N)c(/C=C/C(=O)N3CCOC[C@@H]3C)c12 [Synthesis Example 417, (S,E)-2-Amino-N-cyclopropyl-7-hydroxy-4-isobutyl-3-(3-(3-methylmorpholino)-3-oxoprop-1-en-1-yl)-5-oxo-4,5-dihydropyrazolo[1,5-a]pyrimidine-6-carboxamide hydrochloride]",0.59
6,"CC(C)Cn1c(=O)c(C(=O)NC2CC2)c(O)n2nc(N)c(/C=C/C(=O)N3CCOC[C@H]3C)c12 [Synthesis Example 418, (R,E)-2-Amino-N-cyclopropyl-7-hydroxy-4-isobutyl-3-(3-(3-methylmorpholino)-3-oxoprop-1-en-1-yl)-5-oxo-4,5-dihydropyrazolo[1,5-a]pyrimidine-6-carboxamide hydrochloride]",0.61
7,"Nc1nn2c(O)c(C(=O)NC3CC3)c(=O)n(CC3CC3)c2c1/C=C/C(=O)N1CCOCC1 [Synthesis Example 419, (E)-2-Amino-N-cyclopropyl-4-(cyclopropylmethyl)-7-hydroxy-3-(3-morpholino-3-oxoprop-1-en-1-yl)-5-oxo-4,5-dihydropyrazolo[1,5-a]pyrimidine-6-carboxamide hydrochloride]",0.83
8,"Nc1nn2c(O)c(C(=O)NC3CC3)c(=O)n(CC3CC3)c2c1/C=C/C(=O)N1CCC(F)(F)CC1 [Synthesis Example 420, (E)-2-Amino-N-cyclopropyl-4-(cyclopropylmethyl)-3-(3-(4,4-difluoropiperidin-1-yl)-3-oxoprop-1-en-1-yl)-7-hydroxy-5-oxo-4,5-dihydropyrazolo[1,5-a]pyrimidine-6-carboxamide hydrochloride]",0.75
9,"CC(C)Cn1c(=O)c(C(=O)N[C@@H](C)C(F)(F)F)c(O)n2nc(N)c(/C=C/C(=O)N3CCC(F)(F)CC3)c12 [Synthesis Example 421, (S,E)-2-Amino-3-(3-(4,4-difluoropiperidin-1-yl)-3-oxoprop-1-en-1-yl)-7-hydroxy-4-isobutyl-5-oxo-N-(1,1,1-trifluoropropan-2-yl)-4,5-dihydropyrazolo[1,5-a]pyrimidine-6-carboxamide hydrochloride]",0.77
10,"CC(C)Cn1c(=O)c(C(=O)NC2CC2)c(O)n2nc(N)c(/C=C/C(=O)N3[C@@H](C)COC[C@@H]3C)c12 [Synthesis Example 422, 2-Amino-N-cyclopropyl-3-((E)-3-((3S,5S)-3,5-dimethylmorpholino)-3-oxoprop-1-en-1-yl)-7-hydroxy-4-isobutyl-5-oxo-4,5-dihydropyrazolo[1,5-a]pyrimidine-6-carboxamide]",0.75
11,"CC(C)Cn1c(=O)c(C(=O)NC2CC2)c(O)n2nc(N)c(/C=C/C(=O)N3C4CCCC3COC4)c12 [Synthesis Example 423, (E)-3-(3-(3-Oxa-9-azabicyclo[3.3.1]nonan-9-yl)-3-oxoprop-1-en-1-yl)-2-amino-N-cyclopropyl-7-hydroxy-4-isobutyl-5-oxo-4,5-dihydropyrazolo[1,5-a]pyrimidine-6-carboxamide hydrochloride]",0.71
12,"CC(C)(C)Cn1c(=O)c(C(=O)NC2CC2)c(O)n2nc(NC(N)=O)c(/C=C/C(=O)N3CCOCC3)c12 [Synthesis Example 424, (E)-N-Cyclopropyl-7-hydroxy-3-(3-morpholino-3-oxoprop-1-en-1-yl)-4-neopentyl-5-oxo-2-ureido-4,5-dihydropyrazolo[1,5-a]pyrimidine-6-carboxamide]",0.67
13,"COC(=O)Nc1nn2c(O)c(C(=O)NC3CC3)c(=O)n(CC(C)C)c2c1/C=C/C(=O)N1CCOCC1 [Synthesis Example 425, Methyl (E)-(6-(cyclopropylcarbamoyl)-7-hydroxy-4-isobutyl-3-(3-morpholino-3-oxoprop-1-en-1-yl)-5-oxo-4,5-dihydropyrazolo[1,5-a]pyrimidin-2-yl)carbamate]",0.77
14,"CNc1nn2c(O)c(C(=O)NC3CC3)c(=O)n(CC(C)C)c2c1/C=C/C(=O)N1CCCC1 [Synthesis Example 427, (E)-N-Cyclopropyl-7-hydroxy-4-isobutyl-2-(methylamino)-5-oxo-3-(3-oxo-3-(pyrrolidin-1-yl)prop-1-en-1-yl)-4,5-dihydropyrazolo[1,5-a]pyrimidine-6-carboxamide]",0.95
15,"CNc1nn2c(O)c(C(=O)NC3CC3)c(=O)n(CC(C)C)c2c1/C=C/C(=O)N1CCC(F)(F)C1 [Synthesis Example 428, (E)-N-Cyclopropyl-3-(3-(3,3-difluoropyrrolidin-1-yl)-3-oxoprop-1-en-1-yl)-7-hydroxy-4-isobutyl-2-(methylamino)-5-oxo-4,5-dihydropyrazolo[1,5-a]pyrimidine-6-carboxamide]",0.84
16,"CNc1nn2c(O)c(C(=O)NC3CC3)c(=O)n(CC(C)C)c2c1/C=C/C(=O)N1CC[C@H](F)C1 [Synthesis Example 429, (S,E)-N-Cyclopropyl-3-(3-(3-fluoropyrrolidin-1-yl)-3-oxoprop-1-en-1-yl)-7-hydroxy-4-isobutyl-2-(methylamino)-5-oxo-4,5-dihydropyrazolo[1,5-a]pyrimidine-6-carboxamide]",0.8
17,"CNc1nn2c(O)c(C(=O)NC3CC3)c(=O)n(CC(C)C)c2c1/C=C/C(=O)N1CCOC[C@@H]1C [Synthesis Example 430, (S,E)-N-Cyclopropyl-7-hydroxy-4-isobutyl-2-(methylamino)-3-(3-(3-methylmorpholino)-3-oxoprop-1-en-1-yl)-5-oxo-4,5-dihydropyrazolo[1,5-a]pyrimidine-6-carboxamide]",0.92
18,"CNc1nn2c(O)c(C(=O)NC3CC3)c(=O)n(CC(C)C)c2c1/C=C/C(=O)N1CC2CCC(C1)O2 [Synthesis Example 431, (E)-3-(3-(8-Oxa-3-azabicyclo[3.2.1]octan-3-yl)-3-oxoprop-1-en-1-yl)-N-cyclopropyl-7-hydroxy-4-isobutyl-2-(methylamino)-5-oxo-4,5-dihydropyrazolo[1,5-a]pyrimidine-6-carboxamide]",0.81
19,"CNc1nn2c(O)c(C(=O)NC3CC3)c(=O)n(CC(C)C)c2c1/C=C/C(=O)N1[C@@H](C)COC[C@@H]1C [Synthesis Example 432, N-Cyclopropyl-3-((E)-3-((3S,5S)-3,5-dimethylmorpholino)-3-oxoprop-1-en-1-yl)-7-hydroxy-4-isobutyl-2-(methylamino)-5-oxo-4,5-dihydropyrazolo[1,5-a]pyrimidine-6-carboxamide]",0.66
20,"CC(C)(C)Cn1c(=O)c(C(=O)NC2CC2)c(O)n2nc(N)c(/C=C/C3CCOCC3)c12 [Synthesis Example 433, (E)-2-Amino-N-cyclopropyl-7-hydroxy-4-neopentyl-5-oxo-3-(2-(tetrahydro-2H-pyran-4-yl)vinyl)-4,5-dihydropyrazolo[1,5-a]pyrimidine-6-carboxamide hydrochloride]",0.97
21,"CC(C)Cn1c(=O)c(C(=O)NC2CC2)c(O)n2nc(N)c(/C=C/C3CCOCC3)c12 [Synthesis Example 434, (E)-2-Amino-N-cyclopropyl-7-hydroxy-4-isobutyl-5-oxo-3-(2-(tetrahydro-2H-pyran-4-yl)vinyl)-4,5-dihydropyrazolo[1,5-a]pyrimidine-6-carboxamide hydrochloride]",1.4
22,"C=Cc1c(N)nn2c(O)c(C(=O)NC3CC3)c(=O)n(CC(C)C)c12 [Synthesis Example 435, 2-Amino-N-cyclopropyl-7-hydroxy-4-isobutyl-5-oxo-3-vinyl-4,5-dihydropyrazolo[1,5-a]pyrimidine-6-carboxamide]",1.46
23,"CCc1c(N)nn2c(O)c(C(=O)NC3CC3)c(=O)n(CC(C)(C)C)c12 [Synthesis Example 436, 2-Amino-N-cyclopropyl-3-ethyl-7-hydroxy-4-neopentyl-5-oxo-4,5-dihydropyrazolo[1,5-a]pyrimidine-6-carboxamide hydrochloride]",1.2
24,"Cc1c(N)nn2c(O)c(C(=O)NC3CC3)c(=O)n(CC(C)(C)C)c12 [Synthesis Example 437, 2-Amino-N-cyclopropyl-7-hydroxy-3-methyl-4-neopentyl-5-oxo-4,5-dihydropyrazolo[1,5-a]pyrimidine-6-carboxamide hydrochloride]",1.38
